A value given as a limit tells only on which side of the number the result lay.

For assay [1], the target named is T1, human sphingosine-1-phosphate receptor 1 (S1P1) (Homo sapiens (Human), UniProt P21453). The assay can be described thus: Inhibition of cAMP production (HTRF cAMP HiRange), S1P1 CHO-K1 cells. The settings on record: for Emax: CHO-K1, efficacy (SPAN) normalized to fingolimod, read-out: hS1P1 cAMP SPAN; for hS1P1 cAMP pEC50: inhibition of cAMP production, S1P1 CHO-K1 cells. It counts as cell-based. An outline of the steps: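 CHO-K1 cells stably co-expressing human S1P1 (C-terminal Prolink tag) and EA-β-arrestin2 were grown in AssayComplete Media 6 at 37° C. and 5% CO2, plated, and incubated overnight. Agonist-driven inhibition of intracellular cAMP was read by TR-FRET with the HTRF cAMP HiRange kit on a PheraStar reader. Potency is pEC50, and efficacy (SPAN) is normalized to fingolimod.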
Target sequence in this assay (P21453 whole entry, looked up): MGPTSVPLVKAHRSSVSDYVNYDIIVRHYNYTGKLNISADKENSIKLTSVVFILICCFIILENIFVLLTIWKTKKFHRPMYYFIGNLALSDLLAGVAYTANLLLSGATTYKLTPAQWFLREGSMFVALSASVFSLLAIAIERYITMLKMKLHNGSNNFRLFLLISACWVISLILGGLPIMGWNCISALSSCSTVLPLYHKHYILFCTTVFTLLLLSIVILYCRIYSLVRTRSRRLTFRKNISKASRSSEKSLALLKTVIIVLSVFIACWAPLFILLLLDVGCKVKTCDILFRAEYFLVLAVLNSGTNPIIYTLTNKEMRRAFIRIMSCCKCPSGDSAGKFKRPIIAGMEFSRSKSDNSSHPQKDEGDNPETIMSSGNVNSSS

The target in assay [2] is T1, human sphingosine-1-phosphate receptor 1 (S1P1). In words: β-Arrestin2 recruitment assay (PathHunter), S1P1 CHO-K1 cells. The assay is classed as cell-based. The settings on record: for Emax: CHO-K1, efficacy (SPAN) normalized to fingolimod, read-out: hS1P1 B-arrestin2 SPAN; for hS1P1 B-arrestin2 pEC50: β-arrestin2 recruitment, S1P1 CHO-K1 cells. An outline of the steps: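 Enzyme-fragment complementation read-out: agonist-driven β-arrestin2 binding to ProLink-tagged human S1P1 in stable CHO-K1 cells restores β-galactosidase, measured 1 h at room temperature after a 60 min 37° C. compound incubation. Potency as pEC50, efficacy relative to fingolimod (SPAN).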
Target sequence in this assay (P21453 whole entry, looked up): as above
Target sequence in this assay (P32121 whole entry partner, looked up): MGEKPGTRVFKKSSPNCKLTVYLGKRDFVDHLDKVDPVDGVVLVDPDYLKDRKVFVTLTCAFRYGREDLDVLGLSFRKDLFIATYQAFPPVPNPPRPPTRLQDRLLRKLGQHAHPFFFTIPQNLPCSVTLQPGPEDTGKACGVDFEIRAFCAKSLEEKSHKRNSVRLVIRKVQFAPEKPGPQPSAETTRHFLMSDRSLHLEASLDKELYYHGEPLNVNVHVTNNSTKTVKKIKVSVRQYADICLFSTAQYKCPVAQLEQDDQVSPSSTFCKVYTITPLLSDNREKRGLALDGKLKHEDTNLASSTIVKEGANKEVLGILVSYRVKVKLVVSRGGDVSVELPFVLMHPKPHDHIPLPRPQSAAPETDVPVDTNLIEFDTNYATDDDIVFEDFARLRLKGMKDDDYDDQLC

As to `CCC1(CC)CC(=O)c2cc(-c3nc(-c4ccncc4C(F)(F)F)no3)ccc2O1` [Compound 313, 2,2-diethyl-6-(3-(3-(trifluoromethyl)pyridin-4-yl)-1,2,4-oxadiazol-5-yl)chroman-4-one], in assay [1], the Emax was above 75% and the “hS1P1 cAMP pEC50” value is recorded as above 6.5. For the same molecule, in assay [2], the Emax was above 75% and the “hS1P1 B-arrestin2 pEC50” value is on record as below 5.
As to `CCC1(CC)CC(=O)c2cc(-c3nc(-c4ccnc(C(F)(F)F)c4)no3)ccc2O1` [Compound 314, 2,2-diethyl-6-(3-(2-(trifluoromethyl)pyridin-4-yl)-1,2,4-oxadiazol-5-yl)chroman-4-one], in assay [1], the Emax was below 75% and the “hS1P1 cAMP pEC50” value was below 6.5. In addition, in assay [2], the Emax is below 75% and the “hS1P1 B-arrestin2 pEC50” value is listed as below 5.
Take `CCC1(CC)CC(=O)c2cc(-c3nc(-c4ccnc(C)c4)no3)ccc2O1` [Compound 315, 2,2-diethyl-6-(3-(2-methylpyridin-4-yl)-1,2,4-oxadiazol-5-yl)chroman-4-one]: in assay [1], the Emax is above 75% and the “hS1P1 cAMP pEC50” value was above 6.5. For the same molecule, in assay [2], the Emax is below 75% and the “hS1P1 B-arrestin2 pEC50” value was above 5.
In the case of `CC(=O)Nc1ccc(-c2noc(-c3ccc(NC(C)C)c(C#N)c3)n2)cc1` [Compound 316, N-(4-(5-(3-cyano-4-(isopropylamino)phenyl)-1,2,4-oxadiazol-3-yl)phenyl)acetamide], in assay [1], the Emax is above 75% and the “hS1P1 cAMP pEC50” value is on record as above 6.5. Further, in assay [2], the Emax was below 75% and the “hS1P1 B-arrestin2 pEC50” value is below 5.
The matching figures for `CC(C)n1ccc2cc(-c3nc(-c4ccccc4Cl)no3)ccc21` [Compound 320, 3-(2-chlorophenyl)-5-(1-isopropyl-1H-indol-5-yl)-1,2,4-oxadiazole]: above 75%, above 6.5, above 75% and above 5.
Regarding `CC(C)n1ccc2cc(-c3nc(-c4ccccc4OC(F)(F)F)no3)ccc21` [Compound 321, 5-(1-isopropyl-1H-indol-5-yl)-3-(2-(trifluoromethoxy)phenyl)-1,2,4-oxadiazole], in assay [1], the Emax was above 75% and the “hS1P1 cAMP pEC50” value is listed as below 6.5. In addition, in assay [2], the Emax is below 75% and the “hS1P1 B-arrestin2 pEC50” value is listed as above 5.
In the case of `CC(C)n1ccc2cc(-c3nc(-c4ccccc4Br)no3)ccc21` [Compound 322, 3-(2-bromophenyl)-5-(1-isopropyl-1H-indol-5-yl)-1,2,4-oxadiazole], in assay [1], the Emax is above 75% and the “hS1P1 cAMP pEC50” value is recorded as above 6.5. In assay [2], the Emax is above 75% and the “hS1P1 B-arrestin2 pEC50” value is on record as above 5.
Turning to `CC(C)n1ccc2cc(-c3nc(-c4ccccc4O)no3)ccc21` [Compound 323, 2-(5-(1-isopropyl-1H-indol-5-yl)-1,2,4-oxadiazol-3-yl)phenol], in assay [1], the Emax is above 75% and the “hS1P1 cAMP pEC50” value was below 6.5. In assay [2], the Emax is above 75% and the “hS1P1 B-arrestin2 pEC50” value was below 5.
As to `CC(C)Oc1ccccc1-c1noc(-c2ccc3c(ccn3C(C)C)c2)n1` [Compound 324, 3-(2-isopropoxyphenyl)-5-(1-isopropyl-1H-indol-5-yl)-1,2,4-oxadiazole], in assay [1], the Emax was below 75% and the “hS1P1 cAMP pEC50” value is recorded as below 6.5. In assay [2], the Emax was below 75% and the “hS1P1 B-arrestin2 pEC50” value is reported as below 5.
Take `COc1cccc(OC)c1-c1noc(-c2ccc3c(ccn3C(C)C)c2)n1` [Compound 325, 3-(2,6-dimethoxyphenyl)-5-(1-isopropylindol-5-yl)-1,2,4-oxadiazole]: in assay [1], the Emax is below 75% and the “hS1P1 cAMP pEC50” value is listed as below 6.5. Further, in assay [2], the Emax is below 75% and the “hS1P1 B-arrestin2 pEC50” value was below 5.
As to `CC(C)n1ccc2cc(-c3nc(-c4cccc5c4OCO5)no3)ccc21` [Compound 326, 3-(benzo[d][1,3]dioxol-4-yl)-5-(1-isopropyl-1H-indol-5-yl)-1,2,4-oxadiazole], in assay [1], the Emax is above 75% and the “hS1P1 cAMP pEC50” value is below 6.5. In assay [2], the Emax was above 75% and the “hS1P1 B-arrestin2 pEC50” value is above 5.
Turning to `CC(C)n1ccc2cc(-c3nc(-c4cccc5c4OCCC5)no3)ccc21` [Compound 327, 3-chroman-8-yl-5-(1-isopropylindol-5-yl)-1,2,4-oxadiazole], the “hS1P1 cAMP pEC50” value in assay [1] is below 6.5. For the same molecule, the “hS1P1 B-arrestin2 pEC50” value in assay [2] is reported as above 5.
For `COc1cccc(F)c1-c1noc(-c2ccc3c(ccn3C(C)C)c2)n1` [Compound 328, 3-(2-fluoro-6-methoxy-phenyl)-5-(1-isopropylindol-5-yl)-1,2,4-oxadiazole], the “hS1P1 cAMP pEC50” value in assay [1] is recorded as below 6.5. Moreover, in assay [2], the “hS1P1 B-arrestin2 pEC50” value is above 5.
As to `Cc1ccccc1-c1noc(-c2ccc3c(cnn3C(C)C)c2)n1` [Compound 329, 5-(1-isopropyl-1H-indazol-5-yl)-3-(o-tolyl)-1,2,4-oxadiazole], in assay [1], the Emax is above 75% and the “hS1P1 cAMP pEC50” value is listed as above 6.5. Moreover, in assay [2], the Emax was above 75% and the “hS1P1 B-arrestin2 pEC50” value is listed as above 5.
`CC(C)n1ncc2cc(-c3nc(-c4ccccc4Cl)no3)ccc21` [Compound 330, 3-(2-chlorophenyl)-5-(1-isopropyl-1H-indazol-5-yl)-1,2,4-oxadiazole]: in assay [1], the Emax was above 75% and the “hS1P1 cAMP pEC50” value is above 6.5. In assay [2], the Emax is above 75% and the “hS1P1 B-arrestin2 pEC50” value is reported as above 5.
As to `CC(C)n1ncc2cc(-c3nc(-c4ccccc4OC(F)(F)F)no3)ccc21` [Compound 331, 5-(1-isopropyl-1H-indazol-5-yl)-3-(2-(trifluoromethoxy)phenyl)-1,2,4-oxadiazole], in assay [1], the Emax was above 75% and the “hS1P1 cAMP pEC50” value is recorded as above 6.5. Further, in assay [2], the Emax was above 75% and the “hS1P1 B-arrestin2 pEC50” value was above 5.
In the case of `CC(C)n1ncc2cc(-c3nc(-c4ccccc4Br)no3)ccc21` [Compound 332, 3-(2-bromophenyl)-5-(1-isopropyl-1H-indazol-5-yl)-1,2,4-oxadiazole], in assay [1], the Emax is above 75% and the “hS1P1 cAMP pEC50” value is given as above 6.5. Moreover, in assay [2], the Emax was above 75% and the “hS1P1 B-arrestin2 pEC50” value was above 5.
Regarding `CC(C)n1ncc2cc(-c3nc(-c4ccccc4O)no3)ccc21` [Compound 333, 2-(5-(1-isopropyl-1H-indazol-5-yl)-1,2,4-oxadiazol-3-yl)phenol], in assay [1], the Emax was above 75% and the “hS1P1 cAMP pEC50” value was above 6.5. In addition, in assay [2], the Emax is above 75% and the “hS1P1 B-arrestin2 pEC50” value is given as below 5.
Take `CC(C)Oc1ccccc1-c1noc(-c2ccc3c(cnn3C(C)C)c2)n1` [Compound 334, 3-(2-isopropoxyphenyl)-5-(1-isopropyl-1H-indazol-5-yl)-1,2,4-oxadiazole]: in assay [1], the Emax was above 75% and the “hS1P1 cAMP pEC50” value was below 6.5. Besides, in assay [2], the Emax is above 75% and the “hS1P1 B-arrestin2 pEC50” value is reported as below 5.
As to `COc1cccc(OC)c1-c1noc(-c2ccc3c(cnn3C(C)C)c2)n1` [Compound 335, 3-(2,6-dimethoxyphenyl)-5-(1-isopropylindazol-5-yl)-1,2,4-oxadiazole], in assay [1], the Emax was below 75% and the “hS1P1 cAMP pEC50” value was below 6.5. Moreover, in assay [2], the Emax is below 75% and the “hS1P1 B-arrestin2 pEC50” value was below 5.
`CC(C)n1ncc2cc(-c3nc(-c4cccc5c4OCO5)no3)ccc21` [Compound 336, 3-(benzo[d][1,3]dioxol-4-yl)-5-(1-isopropyl-1H-indazol-5-yl)-1,2,4-oxadiazole]: in assay [1], the Emax is above 75% and the “hS1P1 cAMP pEC50” value is above 6.5. In assay [2], the Emax is below 75% and the “hS1P1 B-arrestin2 pEC50” value is above 5.
The matching figures for `CC(C)n1ncc2cc(-c3nc(-c4cccc5c4OCCC5)no3)ccc21` [Compound 337, 3-chroman-8-yl-5-(1-isopropylindazol-5-yl)-1,2,4-oxadiazole]: above 75%, above 6.5, above 75% and above 5.
In the case of `COc1cccc(F)c1-c1noc(-c2ccc3c(cnn3C(C)C)c2)n1` [Compound 338, 3-(2-fluoro-6-methoxy-phenyl)-5-(1-isopropylindazol-5-yl)-1,2,4-oxadiazole], in assay [1], the Emax is above 75% and the “hS1P1 cAMP pEC50” value was below 6.5. For the same molecule, in assay [2], the Emax was above 75% and the “hS1P1 B-arrestin2 pEC50” value is recorded as below 5.
In the case of `COc1ccccc1-c1nnc(-c2ccc3[nH]oc(=O)c3c2)o1` [Compound 339, 5-[5-(2-methoxyphenyl)-1,3,4-oxadiazol-2-yl]-1,3-dihydro-2,1-benzoxazol-3-one], the “hS1P1 cAMP pEC50” value in assay [1] is on record as below 6.5. Also, in assay [2], the “hS1P1 B-arrestin2 pEC50” value is on record as below 5.
As for `COc1ccccc1-c1nnc(-c2ccc3c(c2)c(=O)on3C)o1` [Compound 340, 5-[5-(2-methoxyphenyl)-1,3,4-oxadiazol-2-yl]-1-methyl-1,3-dihydro-2,1-benzoxazol-3-one], the “hS1P1 cAMP pEC50” value in assay [1] was below 6.5. The “hS1P1 B-arrestin2 pEC50” value in assay [2] is on record as below 5.
For the molecule `COc1ccccc1-c1nnc(-c2ccc3c(c2)CCC(=O)N3)o1` [Compound 341, 6-[5-(2-methoxyphenyl)-1,3,4-oxadiazol-2-yl]-1,2,3,4-tetrahydroquinolin-2-one], the “hS1P1 cAMP pEC50” value in assay [1] is recorded as below 6.5. For the same molecule, the “hS1P1 B-arrestin2 pEC50” value in assay [2] is listed as below 5.

(Values after patent publication US11912693B2, “Compounds for modulating S1P1 activity and methods of using the same” (TREVENA, INC., priority 2017, dated 2024).)
